{
  "source": "patent US10829464B2",
  "about": "“Benzoheterocyclic alkylamine compounds and use thereof” (priority 2016, dated 2020)",
  "key": {"CrtN": {"target": "CrtN (Staphylococcus aureus, UniProt O07855)", "sequence (O07855 whole entry)": "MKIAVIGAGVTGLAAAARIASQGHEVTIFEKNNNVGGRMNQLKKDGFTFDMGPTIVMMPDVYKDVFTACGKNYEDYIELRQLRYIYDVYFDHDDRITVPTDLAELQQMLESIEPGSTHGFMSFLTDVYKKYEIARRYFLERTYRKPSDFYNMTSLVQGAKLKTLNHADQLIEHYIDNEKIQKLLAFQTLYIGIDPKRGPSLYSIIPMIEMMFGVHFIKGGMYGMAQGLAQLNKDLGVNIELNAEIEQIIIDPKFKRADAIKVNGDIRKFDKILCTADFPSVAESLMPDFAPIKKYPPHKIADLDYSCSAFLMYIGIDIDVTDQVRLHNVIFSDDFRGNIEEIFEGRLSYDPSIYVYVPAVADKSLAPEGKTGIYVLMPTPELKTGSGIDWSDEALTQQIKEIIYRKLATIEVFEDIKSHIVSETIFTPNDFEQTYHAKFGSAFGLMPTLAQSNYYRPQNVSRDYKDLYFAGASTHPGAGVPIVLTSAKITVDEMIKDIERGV", "test": "biochemical", "protocol": "(1) Preparation of Diapophytoene Emulsion as Substrate […]\nAfter completion of the reaction, the reaction was terminated by adding 500 μL of methanol, and the reaction solution was transferred to a 15 mL centrifuge tube; the reaction solution was added with 700 μL of chloroform, and vortexed thoroughly to extract the reacted staphyloxanthin, and then centrifuged at 7000 rpm for 3 min, and the chloroform layer was carefully pipetted; the remaining reaction solution was extracted by further adding 500 μL of chloroform thereto, and the extracts were combined and concentrated to dryness under vacuum; the concentrated product was dissolved by adding 200 μL of chloroform, and pipetted into a 96-well microplate, and then the absorbance was measured at 450 nm for quantification of the CrtN product diaponeurosporene."}, "CYP enzyme subtype 2C9": {"target": "CYP enzyme subtype 2C9 (Homo sapiens, UniProt P11712)", "sequence (P11712 whole entry)": "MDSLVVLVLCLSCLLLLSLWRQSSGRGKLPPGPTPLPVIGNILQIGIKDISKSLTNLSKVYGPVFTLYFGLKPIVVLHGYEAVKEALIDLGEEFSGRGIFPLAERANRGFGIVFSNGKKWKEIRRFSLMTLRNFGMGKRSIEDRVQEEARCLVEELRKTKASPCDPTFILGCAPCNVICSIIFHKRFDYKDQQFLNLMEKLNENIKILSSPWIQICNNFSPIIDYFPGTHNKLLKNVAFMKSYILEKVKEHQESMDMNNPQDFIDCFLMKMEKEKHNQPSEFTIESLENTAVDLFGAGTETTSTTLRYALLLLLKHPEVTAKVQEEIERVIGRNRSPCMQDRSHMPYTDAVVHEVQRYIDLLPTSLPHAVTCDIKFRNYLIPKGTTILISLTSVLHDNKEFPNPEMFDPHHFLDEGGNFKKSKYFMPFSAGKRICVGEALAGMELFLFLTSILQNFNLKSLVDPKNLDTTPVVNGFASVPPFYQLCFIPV", "test": "Inhibition assay on hepatic CYP450 enzyme", "type": "in vitro ADME", "settings": "CYP 2C9; read-out: Half inhibitory concentration (IC50)"}, "XN108 (CHN)": {"system": "XN108 (CHN)", "test": "IC50 of inhibition of staphyloxanthin synthesis in MRSA strain", "type": "cell-based", "settings": "Staphylococcus aureus, read-out: Inhibitory activity on staphyloxanthin IC50", "procedure": "(§1) Selection of compound concentrations: based on the preliminary screening results, the ability of each compound to inhibit staphyloxanthin synthesis was determined. […] According to the assay results, 10 different concentration gradients were designed for each compound, such that the ability to inhibit staphyloxanthin synthesis comprised substantially from 0% to 100%.\n(§2) Culture of the strains: single colonies of strain Newman and crtN mutant strain were picked from TSA plates, added into test tubes containing 4 mL of sterile TSB medium, and cultured at 37° C. and 250 rpm for 12 h for later use.\n(§3) The relative level of staphyloxanthin synthesis at each concentration of the compound of the invention=A450 (sample)/A450 (negative control)*100%. With the molar concentration of the compound as the abscissa and the relative level of staphyloxanthin synthesis as the ordinate, a curve fitting of inhibitor concentration-inhibition rate (log(inhibitor) vs response) was performed in Graphpad prism 5.0 software, and the IC50 of the compound for inhibiting staphyloxanthin synthesis was calculated by software based on the fitting results.\n(§4) Compound IA-25 was used as a representative compound. In addition to replacement of S aureus strain Newman with other MRSA strains as described in Table 3, the rest of the method is the same as in Examples 61-62."}, "NRS70 (JPN)": {"system": "NRS70 (JPN)", "test": "IC50 of inhibition of staphyloxanthin synthesis in MRSA strain", "type": "cell-based", "settings": "Staphylococcus aureus, NRS70, read-out: Inhibitory activity on staphyloxanthin IC50", "procedure": "as §1, §2, §3, §4"}, "NRS271 (SPA)": {"system": "NRS271 (SPA)", "test": "IC50 of inhibition of staphyloxanthin synthesis in MRSA strain", "type": "cell-based", "settings": "Staphylococcus aureus, NRS271, read-out: Inhibitory activity on staphyloxanthin IC50", "procedure": "as §1, §2, §3, §4"}, "HS663 (CHN)": {"system": "HS663 (CHN)", "test": "IC50 of inhibition of staphyloxanthin synthesis in MRSA strain", "type": "cell-based", "settings": "Staphylococcus aureus, read-out: Inhibitory activity on staphyloxanthin IC50", "procedure": "as §1, §2, §3, §4"}, "LRSA202 (CHN)": {"system": "LRSA202 (CHN)", "test": "IC50 of inhibition of staphyloxanthin synthesis in MRSA strain", "type": "cell-based", "settings": "Staphylococcus aureus, read-out: Inhibitory activity on staphyloxanthin IC50", "procedure": "as §1, §2, §3, §4"}, "in vitro": {"test": "in vitro", "settings": "mouse, microsomes"}, "Microsporum gypseum": {"system": "Microsporum gypseum", "test": "In vitro antifungal assay (micro liquid-based dilution)", "type": "cell-based", "settings": "Nannizzia gypsea, read-out: Antifungal Activities, MIC80"}, "[1]": {"settings": "rat, in vivo, 1000 mg/kg", "from_the_text": "Thirty rats weighing 180-220 g, half male and half female, were picked out and randomly divided into three groups."}, "NF65Y": {"system": "NF65Y", "test": "In vivo pharmacodynamics evaluation in infected mice", "settings": "BALB/c mice infected retroorbitally with NF65Y", "procedure": "(§5) Compound IA-25 was used as a representative compound. The laboratory SPF-grade female BALB/c mice were purchased from Shanghai Jiesijie Laboratory Animal Co., Ltd. and bred under aseptic condition to 6-8 weeks old. The S. aureus strains which had been cultured overnight were transferred to fresh and sterile TSB medium and cultured at 37° C. and 250 rpm for 3 h to exponential growth phase; the culture was washed twice with PBS buffer, and then suspended in PBS for later use. In the mouse infection assay, the mice were divided into several groups, each containing 10 mice."}, "Mu50": {"system": "Mu50", "test": "In vivo pharmacodynamics evaluation in infected mice", "settings": "BALB/c mice infected retroorbitally with Mu50", "procedure": "as §5"}, "NRS271": {"system": "NRS271", "test": "In vivo pharmacodynamics evaluation in infected mice", "settings": "BALB/c mice infected retroorbitally with NRS271", "procedure": "as §5"}, "LRSA56": {"system": "LRSA56", "test": "In vivo pharmacodynamics evaluation in infected mice", "settings": "BALB/c mice infected retroorbitally with LRSA56", "procedure": "as §5"}, "LRSA202": {"system": "LRSA202", "test": "In vivo pharmacodynamics evaluation in infected mice", "settings": "BALB/c mice infected retroorbitally with LRSA202", "procedure": "as §5"}, "NRS108": {"system": "NRS108", "test": "In vivo pharmacodynamics evaluation in infected mice", "settings": "BALB/c mice infected retroorbitally with NRS108", "procedure": "as §5"}, "strain Newman": {"system": "strain Newman", "test": "In vivo pharmacodynamics evaluation in infected mice", "settings": "BALB/c mice infected retroorbitally with Newman", "procedure": "as §5"}, "Tinea barbae": {"system": "Tinea barbae", "test": "In vitro antifungal assay (micro liquid-based dilution)", "type": "cell-based", "settings": "read-out: Antifungal Activities, MIC80"}, "CYP enzyme subtype 2D6": {"target": "CYP enzyme subtype 2D6 (Homo sapiens, UniProt P10635)", "sequence (P10635 whole entry)": "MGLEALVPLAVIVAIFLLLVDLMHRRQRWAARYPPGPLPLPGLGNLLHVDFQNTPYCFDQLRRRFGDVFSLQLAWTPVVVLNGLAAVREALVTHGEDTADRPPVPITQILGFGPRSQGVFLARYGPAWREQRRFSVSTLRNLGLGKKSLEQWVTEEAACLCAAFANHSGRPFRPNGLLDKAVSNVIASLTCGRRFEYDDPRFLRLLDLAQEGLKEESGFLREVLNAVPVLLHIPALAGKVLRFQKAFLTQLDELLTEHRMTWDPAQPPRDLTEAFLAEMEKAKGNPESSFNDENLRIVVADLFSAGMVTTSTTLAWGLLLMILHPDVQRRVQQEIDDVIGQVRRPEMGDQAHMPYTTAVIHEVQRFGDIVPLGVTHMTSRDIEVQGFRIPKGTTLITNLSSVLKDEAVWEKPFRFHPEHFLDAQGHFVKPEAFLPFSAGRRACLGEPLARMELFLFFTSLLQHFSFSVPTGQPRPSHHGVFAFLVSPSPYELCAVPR", "test": "Inhibition assay on hepatic CYP450 enzyme", "type": "in vitro ADME", "settings": "CYP 2D6; read-out: Half inhibitory concentration (IC50)"}},
  "data": [
    {"smiles": "CN(C/C=C/c1ccc(-c2ccccc2)cc1)Cc1coc2ccccc12", "note": "[Compound IA-25, (E)-N-methyl-N-[(benzofuran-3-yl)methylene]-3-(4-phenylphenyl)-prop-2-en-1-amine]", "values": [
      {"measurement": "IC50", "setting": "CrtN", "result": 373, "unit": "nM"},
      {"measurement": "IC50", "setting": "CYP enzyme subtype 2C9", "result": "> 10000", "unit": "nM"},
      {"measurement": "IC50", "setting": "XN108 (CHN)", "result": "0.2 ± 0.04", "unit": "nM"},
      {"measurement": "IC50", "setting": "NRS70 (JPN)", "result": "1.7 ± 0.01", "unit": "nM"},
      {"measurement": "IC50", "setting": "NRS271 (SPA)", "result": "0.4 ± 0.01", "unit": "nM"},
      {"measurement": "IC50", "setting": "HS663 (CHN)", "result": "0.02 ± 0.01", "unit": "nM"},
      {"measurement": "IC50", "setting": "LRSA202 (CHN)", "result": "1.6 ± 0.2", "unit": "nM"},
      {"measurement": "half-life", "setting": "in vitro", "result": "0.833 to 2", "unit": "h"},
      {"measurement": "MIC80", "setting": "Microsporum gypseum", "result": 32, "unit": "µg/mL"},
      {"measurement": "abnormality in the dissected organs", "setting": "[1]", "result": "there was not any abnormality in the dissected organs"},
      {"measurement": "death or poor behavior events", "setting": "[1]", "result": "did not result in any death or poor behavior events in the rats"},
      {"measurement": "Viable colony counts in vivo", "setting": "NF65Y", "result": 3.5, "unit": "Log10CFU"},
      {"measurement": "Viable colony counts in vivo", "setting": "Mu50", "result": 2.7, "unit": "Log10CFU"},
      {"measurement": "Viable colony counts in vivo", "setting": "NRS271", "result": 6.4, "unit": "Log10CFU"},
      {"measurement": "Viable colony counts in vivo", "setting": "LRSA56", "result": 3.3, "unit": "Log10CFU"},
      {"measurement": "Viable colony counts in vivo", "setting": "LRSA202", "result": 4.9, "unit": "Log10CFU"},
      {"measurement": "Viable colony counts in vivo", "setting": "NRS108", "result": 2.3, "unit": "Log10CFU"},
      {"measurement": "Viable colony counts in vivo", "setting": "strain Newman", "result": 3.8, "unit": "Log10CFU"},
      {"measurement": "MIC80", "setting": "Tinea barbae", "result": "> 64", "unit": "µg/mL"},
      {"measurement": "IC50", "setting": "CYP enzyme subtype 2D6", "result": 3200, "unit": "nM"}
    ]}
  ]
}
